Assay [1] concerns the target Ribosomal protein S6 kinase alpha-2 (Homo sapiens) (UniProt Q15349). The note with it: at 10 µM.
Assay [2] concerns the target Serine/threonine-protein kinase 26 (Homo sapiens, UniProt Q9P289). As to the kind of experiment: Selectivity interaction (Ambit KINOMEscan and KiNATiv profiling in Jurkat cells) EUB0000090b STK26. The assay is classed as cell-based. The note with it: at 1 µM.
Assay [3] addresses Vascular endothelial growth factor receptor 1 (Homo sapiens) (UniProt P17948). As to the kind of experiment: Selectivity interaction (KinomeScan (DiscoverX)) EUB0000699a FLT1. The note with it: at 10 µM.
Assay [4] deals with Beta-3 adrenergic receptor (Homo sapiens) (UniProt P13945). As to the kind of experiment: Selectivity interaction (GPCR panel (PDSP screen)) EUB0001079a ADRB3. The note with it: at 10 µM.
For assay [5], the target named is T1, Tyrosine-protein kinase TXK (Homo sapiens) (UniProt P42681).
T1 sequence (whole entry): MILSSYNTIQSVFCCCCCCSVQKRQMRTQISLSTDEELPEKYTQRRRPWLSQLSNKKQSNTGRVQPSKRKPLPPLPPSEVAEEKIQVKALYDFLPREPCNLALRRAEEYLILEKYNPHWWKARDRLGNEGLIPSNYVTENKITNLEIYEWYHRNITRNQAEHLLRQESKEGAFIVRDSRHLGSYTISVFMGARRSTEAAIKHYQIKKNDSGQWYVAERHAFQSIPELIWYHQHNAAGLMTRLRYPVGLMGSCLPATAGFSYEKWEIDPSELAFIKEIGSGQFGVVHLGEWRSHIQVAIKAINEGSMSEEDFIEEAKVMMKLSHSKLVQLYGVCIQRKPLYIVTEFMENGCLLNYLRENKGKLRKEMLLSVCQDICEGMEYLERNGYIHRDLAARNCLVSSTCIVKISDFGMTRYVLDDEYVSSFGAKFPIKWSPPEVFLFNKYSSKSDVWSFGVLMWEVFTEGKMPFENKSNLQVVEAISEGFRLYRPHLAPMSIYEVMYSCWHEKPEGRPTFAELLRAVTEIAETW
As to the kind of experiment: Selectivity interaction (KinomeScan (DiscoverX)) EUB0001049a TXK. The following applies: at 1 µM.

Assay [6] addresses T2, Activin receptor type-1B (Homo sapiens) (UniProt P36896).
T2 sequence (whole entry): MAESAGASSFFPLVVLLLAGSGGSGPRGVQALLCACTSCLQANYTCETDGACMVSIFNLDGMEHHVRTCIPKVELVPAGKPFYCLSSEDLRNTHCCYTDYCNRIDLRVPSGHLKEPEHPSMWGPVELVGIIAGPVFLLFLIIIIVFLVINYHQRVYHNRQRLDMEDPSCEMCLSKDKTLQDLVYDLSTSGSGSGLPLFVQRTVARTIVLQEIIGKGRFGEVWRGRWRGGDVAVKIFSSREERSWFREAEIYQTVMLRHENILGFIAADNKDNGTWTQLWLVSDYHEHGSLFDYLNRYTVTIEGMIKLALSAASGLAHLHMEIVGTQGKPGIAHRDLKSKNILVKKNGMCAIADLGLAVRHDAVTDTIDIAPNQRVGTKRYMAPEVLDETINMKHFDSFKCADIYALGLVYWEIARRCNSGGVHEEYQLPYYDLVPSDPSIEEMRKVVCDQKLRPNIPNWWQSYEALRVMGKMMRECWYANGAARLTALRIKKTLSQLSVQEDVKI
As to the kind of experiment: Selectivity interaction (KinomeScan (DiscoverX)) EUB0000655a ACVR1B. The note with it: at 10 µM.

Assay [7] has as its target Myosin light chain kinase, smooth muscle (Homo sapiens, UniProt Q15746). As to the kind of experiment: Selectivity interaction (KinomeScan (DiscoverX)) EUB0000655a MYLK. The following applies: at 10 µM.
Assay [8] deals with T3, Serine/threonine-protein kinase Sgk1 (Homo sapiens) (UniProt O00141).
T3 sequence (whole entry): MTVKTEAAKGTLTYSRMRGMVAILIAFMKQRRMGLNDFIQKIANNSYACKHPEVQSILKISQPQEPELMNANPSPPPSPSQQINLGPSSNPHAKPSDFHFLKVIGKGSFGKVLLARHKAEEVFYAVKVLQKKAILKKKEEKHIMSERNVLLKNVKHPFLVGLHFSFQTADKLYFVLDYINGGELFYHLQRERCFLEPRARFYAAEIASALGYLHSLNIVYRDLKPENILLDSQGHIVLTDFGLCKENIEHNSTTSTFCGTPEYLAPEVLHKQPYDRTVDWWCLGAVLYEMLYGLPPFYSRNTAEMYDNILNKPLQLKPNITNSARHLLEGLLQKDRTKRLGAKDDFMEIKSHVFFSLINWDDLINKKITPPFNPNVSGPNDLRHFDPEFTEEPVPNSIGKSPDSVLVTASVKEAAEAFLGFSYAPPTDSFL
Description: Selectivity interaction (Kinase screening (Nanosyn)) EUB0000604a SGK1.

For assay [9], the target named is Glucocorticoid receptor (Homo sapiens) (UniProt P04150). As to the kind of experiment: Selectivity interaction (Eurofins CEREP Diversity Profile (receptors and ion channels)) EUB0000279b NR3C1. The note with it: at 10 µM.
The target in assay [10] is Histone acetyltransferase KAT2B (Homo sapiens, UniProt Q92831). As to the kind of experiment: Selectivity interaction (Bromodomain panel (DSF asssay)) EUB0000270b KAT2B.
The next assay addresses Ephrin type-A receptor 4 (Homo sapiens, UniProt P54764). As to the kind of experiment: Selectivity interaction (KinomeScan (DiscoverX)) EUB0000666a EPHA4. The following applies: at 10 µM.
The target of assay [11] is T4, Serine/threonine-protein kinase DCLK3 (Homo sapiens) (UniProt Q9C098).
T4 sequence (whole entry): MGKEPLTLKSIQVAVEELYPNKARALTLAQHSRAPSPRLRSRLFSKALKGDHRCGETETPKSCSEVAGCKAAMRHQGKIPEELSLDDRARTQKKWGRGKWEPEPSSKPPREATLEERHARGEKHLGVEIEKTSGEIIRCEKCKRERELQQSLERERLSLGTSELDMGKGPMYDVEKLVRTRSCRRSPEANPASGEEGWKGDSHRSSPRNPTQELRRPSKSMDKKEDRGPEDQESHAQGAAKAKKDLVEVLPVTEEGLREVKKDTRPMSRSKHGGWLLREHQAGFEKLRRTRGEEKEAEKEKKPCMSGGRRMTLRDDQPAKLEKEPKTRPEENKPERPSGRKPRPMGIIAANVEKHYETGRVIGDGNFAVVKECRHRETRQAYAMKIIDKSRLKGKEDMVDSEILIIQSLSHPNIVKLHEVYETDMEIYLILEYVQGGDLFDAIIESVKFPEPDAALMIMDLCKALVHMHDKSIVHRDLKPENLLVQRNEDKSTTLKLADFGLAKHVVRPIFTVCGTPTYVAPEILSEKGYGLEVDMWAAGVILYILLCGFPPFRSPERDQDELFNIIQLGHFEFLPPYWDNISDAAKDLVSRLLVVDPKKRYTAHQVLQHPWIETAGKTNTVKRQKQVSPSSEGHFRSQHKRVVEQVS
As to the kind of experiment: Selectivity interaction (KinomeScan (DiscoverX)) EUB0000666a DCLK3. The note with it: at 10 µM.

Assay [12] has as its target Serine/threonine-protein kinase B-raf (Homo sapiens) (UniProt P15056). As to the kind of experiment: (§1) Selectivity interaction (Kinase panel (Z-LYTE Assay)) EUB0001632a BRAF. The note with it: at 10 µM.
Assay [13] has as its system Serine/threonine-protein kinase B-raf (Homo sapiens), P15056 [V600E]. The assay is described as §1. The note with it: at 10 µM.

Sequence of Serine/threonine-protein kinase 26 (Q9P289 2-416 limits assumed): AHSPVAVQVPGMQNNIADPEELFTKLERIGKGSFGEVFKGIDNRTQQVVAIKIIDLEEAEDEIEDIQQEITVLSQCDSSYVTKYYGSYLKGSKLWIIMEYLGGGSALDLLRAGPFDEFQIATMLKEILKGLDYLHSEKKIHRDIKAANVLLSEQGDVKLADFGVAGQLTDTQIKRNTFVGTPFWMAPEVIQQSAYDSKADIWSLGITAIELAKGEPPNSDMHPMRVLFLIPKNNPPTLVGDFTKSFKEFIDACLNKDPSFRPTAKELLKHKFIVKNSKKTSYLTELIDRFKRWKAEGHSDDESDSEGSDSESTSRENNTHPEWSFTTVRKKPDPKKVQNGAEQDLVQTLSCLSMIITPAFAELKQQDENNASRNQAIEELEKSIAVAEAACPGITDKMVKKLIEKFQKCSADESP
Sequence of Glucocorticoid receptor (Homo sapiens) (P04150 whole entry): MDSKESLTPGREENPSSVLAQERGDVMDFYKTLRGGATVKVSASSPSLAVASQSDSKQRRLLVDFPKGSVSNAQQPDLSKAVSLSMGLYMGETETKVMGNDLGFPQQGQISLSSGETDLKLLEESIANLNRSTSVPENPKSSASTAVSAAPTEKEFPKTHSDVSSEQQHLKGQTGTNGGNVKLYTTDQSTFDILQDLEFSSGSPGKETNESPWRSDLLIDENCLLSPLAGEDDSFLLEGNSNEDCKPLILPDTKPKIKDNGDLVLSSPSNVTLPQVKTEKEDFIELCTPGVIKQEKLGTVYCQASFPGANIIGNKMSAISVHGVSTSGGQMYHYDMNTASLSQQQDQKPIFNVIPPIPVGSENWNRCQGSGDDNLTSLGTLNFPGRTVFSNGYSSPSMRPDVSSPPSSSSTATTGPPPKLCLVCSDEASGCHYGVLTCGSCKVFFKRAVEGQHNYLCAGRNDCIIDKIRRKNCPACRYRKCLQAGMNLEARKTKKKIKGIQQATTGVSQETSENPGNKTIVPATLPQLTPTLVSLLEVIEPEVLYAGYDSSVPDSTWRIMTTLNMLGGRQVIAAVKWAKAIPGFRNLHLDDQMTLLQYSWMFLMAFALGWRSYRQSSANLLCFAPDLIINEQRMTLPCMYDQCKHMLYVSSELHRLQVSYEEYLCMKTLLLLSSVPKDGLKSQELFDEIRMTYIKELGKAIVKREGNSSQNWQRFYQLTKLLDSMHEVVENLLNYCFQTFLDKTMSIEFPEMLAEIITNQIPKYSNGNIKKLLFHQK
Sequence of Beta-3 adrenergic receptor (Homo sapiens) (P13945 whole entry, looked up): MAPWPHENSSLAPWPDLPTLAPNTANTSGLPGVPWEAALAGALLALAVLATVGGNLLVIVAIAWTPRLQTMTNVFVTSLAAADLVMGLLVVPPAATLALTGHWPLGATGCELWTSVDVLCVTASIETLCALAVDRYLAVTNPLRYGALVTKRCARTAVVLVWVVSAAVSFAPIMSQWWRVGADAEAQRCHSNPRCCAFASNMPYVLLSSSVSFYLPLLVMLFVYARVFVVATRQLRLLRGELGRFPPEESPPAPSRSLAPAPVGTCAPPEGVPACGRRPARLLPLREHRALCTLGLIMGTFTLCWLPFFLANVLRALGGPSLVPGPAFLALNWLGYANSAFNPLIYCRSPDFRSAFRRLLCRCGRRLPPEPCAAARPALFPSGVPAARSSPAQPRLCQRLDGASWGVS
Sequence of Ribosomal protein S6 kinase alpha-2 (Homo sapiens) (Q15349 whole entry): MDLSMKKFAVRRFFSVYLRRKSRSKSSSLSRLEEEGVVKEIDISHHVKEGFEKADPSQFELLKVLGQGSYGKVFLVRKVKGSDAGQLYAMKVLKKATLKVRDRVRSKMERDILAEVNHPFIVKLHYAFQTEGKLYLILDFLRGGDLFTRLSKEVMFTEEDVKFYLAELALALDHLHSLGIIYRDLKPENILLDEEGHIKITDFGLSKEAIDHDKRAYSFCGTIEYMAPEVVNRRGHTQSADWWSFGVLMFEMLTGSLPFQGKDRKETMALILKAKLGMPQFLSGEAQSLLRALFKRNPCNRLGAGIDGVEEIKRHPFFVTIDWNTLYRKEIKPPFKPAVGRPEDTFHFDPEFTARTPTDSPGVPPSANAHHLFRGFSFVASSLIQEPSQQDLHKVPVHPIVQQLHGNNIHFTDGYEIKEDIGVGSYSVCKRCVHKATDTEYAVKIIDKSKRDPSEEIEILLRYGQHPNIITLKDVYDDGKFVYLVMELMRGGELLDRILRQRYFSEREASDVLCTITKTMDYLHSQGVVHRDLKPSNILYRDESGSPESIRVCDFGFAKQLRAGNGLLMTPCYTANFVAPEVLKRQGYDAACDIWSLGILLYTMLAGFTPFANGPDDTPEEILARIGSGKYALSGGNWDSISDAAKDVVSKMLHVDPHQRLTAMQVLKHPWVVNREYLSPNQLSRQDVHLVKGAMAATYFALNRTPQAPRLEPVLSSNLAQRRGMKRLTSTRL
Sequence of Ephrin type-A receptor 4 (P54764 whole entry): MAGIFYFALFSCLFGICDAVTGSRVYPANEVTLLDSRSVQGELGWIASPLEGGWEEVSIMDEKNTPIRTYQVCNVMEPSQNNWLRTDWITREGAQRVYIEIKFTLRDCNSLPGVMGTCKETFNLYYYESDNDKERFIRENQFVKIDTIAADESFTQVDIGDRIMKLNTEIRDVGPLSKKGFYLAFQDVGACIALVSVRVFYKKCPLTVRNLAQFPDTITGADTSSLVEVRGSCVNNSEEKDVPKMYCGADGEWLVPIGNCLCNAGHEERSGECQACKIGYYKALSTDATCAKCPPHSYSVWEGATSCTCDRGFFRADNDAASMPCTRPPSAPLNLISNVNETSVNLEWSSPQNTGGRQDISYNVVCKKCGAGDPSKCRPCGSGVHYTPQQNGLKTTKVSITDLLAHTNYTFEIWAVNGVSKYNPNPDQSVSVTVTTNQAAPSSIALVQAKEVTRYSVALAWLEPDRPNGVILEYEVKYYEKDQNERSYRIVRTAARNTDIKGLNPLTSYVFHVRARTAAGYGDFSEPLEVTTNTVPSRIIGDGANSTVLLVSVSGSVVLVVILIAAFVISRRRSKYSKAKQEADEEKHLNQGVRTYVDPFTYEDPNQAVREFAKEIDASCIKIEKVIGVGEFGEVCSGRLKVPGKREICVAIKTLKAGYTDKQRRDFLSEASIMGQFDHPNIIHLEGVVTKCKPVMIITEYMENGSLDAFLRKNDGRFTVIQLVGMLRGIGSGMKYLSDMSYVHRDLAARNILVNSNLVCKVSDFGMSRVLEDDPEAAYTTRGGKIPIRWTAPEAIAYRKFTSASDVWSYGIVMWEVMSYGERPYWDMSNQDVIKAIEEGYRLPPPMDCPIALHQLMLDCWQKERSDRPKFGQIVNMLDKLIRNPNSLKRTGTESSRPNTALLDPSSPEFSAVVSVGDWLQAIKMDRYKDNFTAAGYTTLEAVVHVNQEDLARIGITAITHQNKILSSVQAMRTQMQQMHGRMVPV
Sequence of Serine/threonine-protein kinase B-raf (Homo sapiens), P15056 [V600E] (P15056 whole entry V600E): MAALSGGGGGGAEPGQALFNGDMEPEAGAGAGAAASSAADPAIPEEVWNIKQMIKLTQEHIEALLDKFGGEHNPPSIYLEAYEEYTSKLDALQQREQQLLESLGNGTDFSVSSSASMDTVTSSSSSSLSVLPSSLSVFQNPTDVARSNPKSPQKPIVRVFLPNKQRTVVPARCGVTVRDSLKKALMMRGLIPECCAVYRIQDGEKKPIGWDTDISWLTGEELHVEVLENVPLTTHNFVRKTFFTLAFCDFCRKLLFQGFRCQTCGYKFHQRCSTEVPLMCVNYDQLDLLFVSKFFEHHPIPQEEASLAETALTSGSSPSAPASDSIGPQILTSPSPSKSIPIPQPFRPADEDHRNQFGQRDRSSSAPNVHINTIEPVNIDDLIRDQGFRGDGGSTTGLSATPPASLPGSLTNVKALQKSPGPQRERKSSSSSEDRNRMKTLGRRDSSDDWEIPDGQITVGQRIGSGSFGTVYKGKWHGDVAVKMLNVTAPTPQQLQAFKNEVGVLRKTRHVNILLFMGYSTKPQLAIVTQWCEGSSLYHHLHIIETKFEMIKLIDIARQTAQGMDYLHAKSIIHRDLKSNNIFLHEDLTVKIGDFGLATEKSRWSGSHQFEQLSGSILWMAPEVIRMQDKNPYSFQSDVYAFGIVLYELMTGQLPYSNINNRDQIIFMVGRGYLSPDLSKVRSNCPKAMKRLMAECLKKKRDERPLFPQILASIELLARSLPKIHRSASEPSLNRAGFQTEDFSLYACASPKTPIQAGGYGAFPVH
Sequence of Serine/threonine-protein kinase B-raf (Homo sapiens) (P15056 whole entry): as the sequence (P15056 whole entry V600E) above, with E600V counted along it
Sequence of Histone acetyltransferase KAT2B (Q92831 whole entry, looked up): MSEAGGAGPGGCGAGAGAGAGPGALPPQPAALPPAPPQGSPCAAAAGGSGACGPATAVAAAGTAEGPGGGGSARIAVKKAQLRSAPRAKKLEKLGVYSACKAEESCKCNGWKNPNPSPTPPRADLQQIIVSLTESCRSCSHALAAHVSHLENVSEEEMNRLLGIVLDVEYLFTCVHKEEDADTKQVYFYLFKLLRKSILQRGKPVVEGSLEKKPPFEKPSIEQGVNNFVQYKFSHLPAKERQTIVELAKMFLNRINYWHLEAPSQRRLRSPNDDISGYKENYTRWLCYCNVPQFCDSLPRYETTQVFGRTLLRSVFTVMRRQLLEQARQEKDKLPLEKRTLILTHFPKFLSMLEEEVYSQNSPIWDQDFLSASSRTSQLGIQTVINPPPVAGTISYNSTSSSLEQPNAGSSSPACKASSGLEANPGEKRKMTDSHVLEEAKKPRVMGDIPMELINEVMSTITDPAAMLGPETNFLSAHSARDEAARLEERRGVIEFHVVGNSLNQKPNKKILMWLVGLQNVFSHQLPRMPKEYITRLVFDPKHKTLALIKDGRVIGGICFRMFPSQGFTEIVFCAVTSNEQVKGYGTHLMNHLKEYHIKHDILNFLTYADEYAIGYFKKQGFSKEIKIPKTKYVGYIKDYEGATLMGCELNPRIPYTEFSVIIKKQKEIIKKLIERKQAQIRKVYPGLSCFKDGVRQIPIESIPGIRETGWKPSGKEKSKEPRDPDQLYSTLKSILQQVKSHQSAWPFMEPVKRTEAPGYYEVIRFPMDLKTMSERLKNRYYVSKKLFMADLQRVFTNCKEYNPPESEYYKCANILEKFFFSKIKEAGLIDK

Consider `Cc1cc([C@@H](C)Nc2ccccc2C(=O)O)c2nc(N3CCOCC3)cc(=O)n2c1` [AZD-6482], for which the % of control in assay [1] came out at 98%.

With `CN(C)C/C=C/C(=O)Nc1ccc(C(=O)N2CCCC(Nc3ncc(Cl)c(-c4c[nH]c5ccccc45)n3)C2)cc1` (centres undefined), in assay [2], the % of control is 88%.

For `CCN(CC)CCCCNc1ncc2cc(-c3cc(OC)cc(OC)c3)c(NC(=O)NC(C)(C)C)nc2n1`, the % of control in assay [3] was 8%.

Take `Nc1cnc(N2CCc3cc(S(=O)(=O)Nc4c(F)cc(Cl)cc4F)cc(N4CCCC4=O)c32)nc1` [TP-020n]: in [4], the % of inhibition was -2.69%.

On to `COc1cc(Nc2nc(C)cc(-c3cnn4nc(OC)ccc34)n2)cc(C(F)(F)F)c1`, for which the % of control in assay [5] was determined as 91%.

Consider `CN(C)CCOc1ccc(-c2nc(-c3ccncc3)c(-c3ccc4c(c3)CC/C4=N\O)[nH]2)cc1`, for which the % of control in [6] worked out at 40%; in assay [7], 51%.

Regarding `Cc1cnc(Nc2ccc(F)cc2Cl)nc1-c1c[nH]c(C(=O)N[C@H](CO)c2cccc(Cl)c2)c1`, in [8], the % of inhibition is 15%.

`CC(=O)c1cc(-c2ccccc2OCC2CC2)c2ncccn12`: the % of control in [9] was determined as 94%.

For `Cc1cc(CN)cc(C)c1-c1ncn(C)c1-c1cncn1C`, the dTM in assay [10] was -0.88 K.

Regarding `O=C(NOC[C@H](O)CO)c1ccc(F)c(F)c1Nc1ccc(I)cc1F`, the % of control (on Ephrin type-A receptor 4; in assay [11]) was 100% throughout.

`Cn1cc(-n2cnc3c(NCc4nc5cc(Cl)c(Cl)cc5[nH]4)nc(N4CCOCC4)nc32)cn1`: the values for the % of control in [12] and in assay [13] were -4.02% and 46.2%, respectively.

Source of the values: ChEMBL document CHEMBL5465560, “Selectivity Literature for EUbOPEN Chemogenomic Library” (2024).
